Data published in PubChem BioAssay (NCI).
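Protocol summary: plate cells (96-well), add compound at 5 concentrations, incubate 48 h, interpolate endpoints linearly. GI50 is the concentration that inhibits growth by half. TGI denotes the concentration required for complete inhibition of growth.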

System: K-562 leukemia
Experiment: NCI tumour cell line growth inhibition, 48 h

Row | SMILES | GI50 [µM] | TGI [µM]
1 | Cc1ccc(C(=O)CN(/C=C/C(=O)C(F)(F)F)c2ccc(S(N)(=O)=O)cc2)cc1 | 39.3 | > 100
2 | CC1CC[C@]2(C(=O)O)CCC3(C)C(=CC(=O)C4[C@@]5(C)CCC(=O)C(C)(C)C5CC[C@]43C)[C@@H]2[C@H]1C (some centres undefined) | – | > 100
3 | CC(C)C(Nc1c2ccccc2nc2ccccc12)C(=O)O (centres undefined) | – | > 100
4 | COc1ccccc1CCc1cc(OC)c(OC)c(OC)c1 | – | > 100
5 | COc1cc2c(cc1OC)C(CC(=O)NN=C(C)C)NCC2 (centres undefined) | – | > 100
6 | Cc1cccc(NC(=O)C(=O)C(C(=O)c2ccc3ccccc3c2)C2OC(=O)c3ccccc32)c1C (centres undefined) | – | > 100
7 | CS/C(N)=N\NC(=O)CCC(=O)Nc1ccccc1C(F)(F)F | – | > 100
8 | CC(C)(C)c1ccc2c(c1)S(=O)(=O)Nc1ccccc1NS(=O)(=O)c1cc(C(C)(C)C)ccc1OCCOCCOCCO2 | – | > 100
9 | COc1cc(/C=C/c2cc(/C=C/c3ccc(O)c(OC)c3)n(C(=O)Nc3ccc(F)c(Cl)c3)n2)ccc1O | 0.288 | 1.45
10 | CC(=O)[O-].CCN(CC)c1ccc(C=NCCN=Cc2ccc(N(CC)CC)cc2[O-])c([O-])c1.[Mn+3] | 22.9 | 61.3
11 | COc1cc2c3c(n(CCCNC(=O)OCC4c5ccccc5-c5ccccc54)c(=O)c2cc1OC)-c1cc2c(cc1/C3=C\CCNC(=O)OCC1c3ccccc3-c3ccccc31)OCO2 | 9.17 | > 35.8
12 | NC(N)=N/N=C(\c1nc2ccc([N+](=O)[O-])cc2[nH]c1=O)C(O)c1ccc([N+](=O)[O-])cc1 (centres undefined) | – | > 100
13 | CCC[CH2][Sn]1([CH2]CCC)[O]CC(CN2CCCC2)[O]1 (centres undefined) | 4.24 | 21.4
14 | CC1(C)C(=O)N(CCCCCCN2C(=O)C(C)(C)c3ccccc32)c2ccccc21 | – | 55.4
15 | NCCCCN(CCCN)/[N+]([O-])=N\O | – | > 100
16 | CCOc1ccccc1NC(=O)CC(C(=O)OC)C(=O)C(=O)OC (centres undefined) | – | > 100
17 | C[C@@]12CC=C3c4nc(Nc5cccc(O)c5)sc4CC[C@]3(C)[C@H]1CC[C@]1(C)C(=O)CC[C@@H]21 | 2.53 | > 100
18 | CN1C(=O)c2cccc3cc([N+](=O)[O-])cc(c23)C1=O | – | > 10
19 | COC(=O)C1=C(C)N(NC(=O)OC(C)(C)C)C(=O)C1=P(c1ccccc1)(c1ccccc1)c1ccccc1 | – | > 100
20 | O=C1OC(c2ccccc2)=N/C1=C\c1cccc2ccccc12 | – | > 100
21 | Cc1cccc(NC(=O)/C(=N\NC(C)(C)C)C2NC(=S)NC2=O)c1C (centres undefined) | – | > 100
22 | c1ccc(CNn2nnc3ccccc32)cc1 | – | > 100

System: M14 melanoma
Experiment: NCI tumour cell line growth inhibition, 48 h

Row | SMILES | TGI [µM] | GI50 [µM]
23 | Cc1nc(N)sc1C(=O)/C=C\c1ccc2c(c1)OCO2 | > 100 | –
24 | COc1cc(C(C)O)c[n+](CCc2c[nH]c3ccccc23)c1 (centres undefined) | > 100 | –
25 | CC1(C)SCc2nc3ncccc3n21 | > 100 | –
26 | Cn1c(=O)c(C(c2ccc([N+](=O)[O-])cc2)c2c(O)c3ccccc3n(C)c2=O)cc2ccccc21 (centres undefined) | > 100 | –
27 | Cc1cn(C2CC(O)C(CO)O2)c(=O)n2nnnc12 (centres undefined) | > 100 | –
28 | COc1ccc(C(=O)C(C(=O)CCC(=O)Nc2cccc(Cl)c2)c2ccc(OC)cc2)cc1 (centres undefined) | > 100 | –
29 | CCOC(=O)C1=C(C)N(NC(=O)Nc2ccccc2)C(=O)C1=P(c1ccccc1)(c1ccccc1)c1ccccc1 | > 100 | –
30 | COc1cc(C=C2C(=O)NC(=O)NC2=O)cc(OC)c1OC | > 100 | –
31 | Nn1c(=O)n(Cc2ccccc2)n(-c2ccccc2)c1=O | > 100 | –
32 | NCC1Nc2ccccc2[C@@H](O)C1O (some centres undefined) | > 100 | –
33 | Cc1cccc(N2CCN(C(=S)c3ccc4c(c3)OCO4)CC2)c1 | > 100 | 0.463
34 | Cc1cc(C(=O)Nc2ncc(Cc3cccc(C(F)(F)F)c3)s2)c2ccccc2n1 | > 100 | 0.185
35 | Cc1ccc(C2=C(c3ccccc3)C(Br)(c3ccc(C)cc3)C(c3ccccc3)=C2c2ccc(C)cc2)cc1 | > 100 | –
36 | N#CCN1C(=O)c2cccc3cc([N+](=O)[O-])cc(c23)C1=O | > 100 | –
37 | O=C1CCN2C(=O)CCN12 | > 100 | –
38 | Cc1ccc(C(=O)CN(/C=C/C(=O)C(F)(F)F)c2ccc(S(N)(=O)=O)cc2)cc1 | > 100 | > 100
39 | Clc1nc(Cl)c(Cl)c(-c2ccccc2)n1 | 3.72 | –
40 | CC1CC[C@]2(C(=O)O)CCC3(C)C(=CC(=O)C4[C@@]5(C)CCC(=O)C(C)(C)C5CC[C@]43C)[C@@H]2[C@H]1C (some centres undefined) | > 100 | –
41 | CC(C)C(Nc1c2ccccc2nc2ccccc12)C(=O)O (centres undefined) | > 100 | –
42 | COc1ccccc1CCc1cc(OC)c(OC)c(OC)c1 | > 100 | –
43 | COc1cc2c(cc1OC)C(CC(=O)NN=C(C)C)NCC2 (centres undefined) | > 100 | –

Row | SMILES | TGI [µM] | GI50 [µM]
44 | COC(=O)/C(=N\Nc1nnc(C)n1N)C(C#N)c1ccc(Cl)cc1 (centres undefined) | > 100 | –
45 | Cc1cccc(NC(=O)C(=O)C(C(=O)c2ccc3ccccc3c2)C2OC(=O)c3ccccc32)c1C (centres undefined) | 33.4 | –
46 | CS/C(N)=N\NC(=O)CCC(=O)Nc1ccccc1C(F)(F)F | > 100 | –
47 | CC(C)(C)c1ccc2c(c1)S(=O)(=O)Nc1ccccc1NS(=O)(=O)c1cc(C(C)(C)C)ccc1OCCOCCOCCO2 | > 100 | –
48 | COc1cc(/C=C/c2cc(/C=C/c3ccc(O)c(OC)c3)n(C(=O)Nc3ccc(F)c(Cl)c3)n2)ccc1O | 1.59 | 0.114
49 | CC(=O)[O-].CCN(CC)c1ccc(C=NCCN=Cc2ccc(N(CC)CC)cc2[O-])c([O-])c1.[Mn+3] | 35.5 | 19.2
50 | Clc1ccc(C2=Nn3c(COc4ccccc4Cl)nnc3SC2)c(Cl)c1 | 41.4 | 16.4
51 | COc1cc2c3c(n(CCCNC(=O)OCC4c5ccccc5-c5ccccc54)c(=O)c2cc1OC)-c1cc2c(cc1/C3=C\CCNC(=O)OCC1c3ccccc3-c3ccccc31)OCO2 | > 50 | > 25.3
52 | NC(N)=N/N=C(\c1nc2ccc([N+](=O)[O-])cc2[nH]c1=O)C(O)c1ccc([N+](=O)[O-])cc1 (centres undefined) | > 100 | –
53 | CCC[CH2][Sn]1([CH2]CCC)[O]CC(CN2CCCC2)[O]1 (centres undefined) | 32.5 | 16.9
54 | CC1(C)C(=O)N(CCCCCCN2C(=O)C(C)(C)c3ccccc32)c2ccccc21 | 87.4 | –
55 | NCCCCN(CCCN)/[N+]([O-])=N\O | > 100 | –
56 | CCOc1ccccc1NC(=O)CC(C(=O)OC)C(=O)C(=O)OC (centres undefined) | > 100 | –
57 | C[C@@]12CC=C3c4nc(Nc5cccc(O)c5)sc4CC[C@]3(C)[C@H]1CC[C@]1(C)C(=O)CC[C@@H]21 | > 100 | 2.97
58 | CN1C(=O)c2cccc3cc([N+](=O)[O-])cc(c23)C1=O | > 10 | –
59 | COC(=O)C1=C(C)N(NC(=O)OC(C)(C)C)C(=O)C1=P(c1ccccc1)(c1ccccc1)c1ccccc1 | > 100 | –
60 | O=C1OC(c2ccccc2)=N/C1=C\c1cccc2ccccc12 | > 100 | –
61 | Cc1cccc(NC(=O)/C(=N\NC(C)(C)C)C2NC(=S)NC2=O)c1C (centres undefined) | > 100 | –
62 | C[C@@H]1CC(=O)C2CCCC1C2=O (some centres undefined) | > 100 | –
63 | c1ccc(CNn2nnc3ccccc32)cc1 | > 100 | –

System: MDA-MB-435
Experiment: NCI tumour cell line growth inhibition, 48 h

Row | SMILES | TGI [µM] | GI50 [µM]
64 | NCC1Nc2ccccc2[C@@H](O)C1O (some centres undefined) | > 100 | –
65 | Cc1ccc(C(=O)CN(/C=C/C(=O)C(F)(F)F)c2ccc(S(N)(=O)=O)cc2)cc1 | > 100 | > 100
66 | Clc1nc(Cl)c(Cl)c(-c2ccccc2)n1 | 28.7 | –
67 | COc1cc(/C=C/c2cc(/C=C/c3ccc(O)c(OC)c3)n(C(=O)Nc3ccc(F)c(Cl)c3)n2)ccc1O | 0.102 | 0.0223
68 | Clc1ccc(C2=Nn3c(COc4ccccc4Cl)nnc3SC2)c(Cl)c1 | 84.5 | 20.1
69 | COc1cc2c3c(n(CCCNC(=O)OCC4c5ccccc5-c5ccccc54)c(=O)c2cc1OC)-c1cc2c(cc1/C3=C\CCNC(=O)OCC1c3ccccc3-c3ccccc31)OCO2 | 49 | > 28.9
70 | CN1C(=O)c2cccc3cc([N+](=O)[O-])cc(c23)C1=O | > 10 | –

System: NCI-H23 lung
Experiment: NCI tumour cell line growth inhibition, 48 h

Row | SMILES | TGI [µM] | GI50 [µM]
71 | Cc1nc(N)sc1C(=O)/C=C\c1ccc2c(c1)OCO2 | > 100 | –
72 | COc1cc(C(C)O)c[n+](CCc2c[nH]c3ccccc23)c1 (centres undefined) | > 100 | –
73 | CC1(C)SCc2nc3ncccc3n21 | > 100 | –
74 | Cn1c(=O)c(C(c2ccc([N+](=O)[O-])cc2)c2c(O)c3ccccc3n(C)c2=O)cc2ccccc21 (centres undefined) | > 100 | –
75 | Cc1cn(C2CC(O)C(CO)O2)c(=O)n2nnnc12 (centres undefined) | > 100 | –
76 | COc1ccc(C(=O)C(C(=O)CCC(=O)Nc2cccc(Cl)c2)c2ccc(OC)cc2)cc1 (centres undefined) | > 100 | –
77 | CCOC(=O)C1=C(C)N(NC(=O)Nc2ccccc2)C(=O)C1=P(c1ccccc1)(c1ccccc1)c1ccccc1 | > 100 | –
78 | COc1cc(C=C2C(=O)NC(=O)NC2=O)cc(OC)c1OC | > 100 | –
79 | Nn1c(=O)n(Cc2ccccc2)n(-c2ccccc2)c1=O | > 100 | –
80 | NCC1Nc2ccccc2[C@@H](O)C1O (some centres undefined) | > 100 | –
81 | Cc1cccc(N2CCN(C(=S)c3ccc4c(c3)OCO4)CC2)c1 | > 100 | 7.07
82 | Cc1cc(C(=O)Nc2ncc(Cc3cccc(C(F)(F)F)c3)s2)c2ccccc2n1 | > 100 | 3.9
83 | Cc1ccc(C2=C(c3ccccc3)C(Br)(c3ccc(C)cc3)C(c3ccccc3)=C2c2ccc(C)cc2)cc1 | > 100 | –
